From US5126336A, “Antibiotic C-3 catechol-substituted cephalosporin compounds, compositions and method of use thereof” (Bristol-Myers Squibb Company, priority 1990, dated 1992)
≈ marks a conversion by molar mass, not a printed value. Where two headings read alike, the source gives them in different places.

Experiments:
Test in all cases: MIC, agar dilution
Type in all cases: cell-based
[1] = system: B. subtilis PCI 219; settings: Bacillus subtilis, PCI219, Mueller-Hinton agar pH 7.2, 32° C., 18 hr, 10^6 cells/ml
Protocol: (§1) Minimum inhibitory concentrations (MICs) of the present series of cephalosporins were determined against 32 strains of test organisms by two-fold serial agar dilution method in Mueller-Hinton agar. Geometric means of MICs were calculated against six groups of the test organisms which are classified as follows and summarized in Table 1.
(§2) Medium; MuellerHinton agar (pH = 7.2)
(§3) Incubation temperature: 32° C., 18 hr
(§4) Inoculum size; 10^6 cells/ml

[2] = system: C. freundii GN 7391; settings: Citrobacter freundii, GN7391, Mueller-Hinton agar pH 7.2, 32° C., 18 hr, 10^6 cells/ml
Protocol: as §1, §2, §3, §4

[3] = system: C. terrigena IFO 12685; settings: Mueller-Hinton agar pH 7.2, 32° C., 18 hr, 10^6 cells/ml
Protocol: as §1, §2, §3, §4

[4] = system: E. cloacae IPM-12; settings: Enterobacter cloacae, IPM12, Mueller-Hinton agar pH 7.2, 32° C., 18 hr, 10^6 cells/ml
Protocol: as §1, §2, §3, §4

[5] = system: E. coli 255; settings: Escherichia coli, Mueller-Hinton agar pH 7.2, 32° C., 18 hr, 10^6 cells/ml
Protocol: as §1, §2, §3, §4

[6] = system: E. faecalis A9808; settings: Enterococcus faecalis, Mueller-Hinton agar pH 7.2, 32° C., 18 hr, 10^6 cells/ml
Protocol: as §1, §2, §3, §4

[7] = system: E. faecium A24817; settings: Enterococcus faecium, Mueller-Hinton agar pH 7.2, 32° C., 18 hr, 10^6 cells/ml
Protocol: as §1, §2, §3, §4

[8] = system: K. pneumoniae PCI 602; settings: Klebsiella pneumoniae, PCI602, Mueller-Hinton agar pH 7.2, 32° C., 18 hr, 10^6 cells/ml
Protocol: as §1, §2, §3, §4

[9] = system: M. luteus 1001; settings: Micrococcus luteus, Mueller-Hinton agar pH 7.2, 32° C., 18 hr, 10^6 cells/ml
Protocol: as §1, §2, §3, §4

[10] = system: M. morgani 1510/9; settings: Mueller-Hinton agar pH 7.2, 32° C., 18 hr, 10^6 cells/ml
Protocol: as §1, §2, §3, §4

[11] = system: M. morgani 1510; settings: Mueller-Hinton agar pH 7.2, 32° C., 18 hr, 10^6 cells/ml
Protocol: as §1, §2, §3, §4

[12] = system: P. aeruginosa A20599; settings: Pseudomonas aeruginosa, Mueller-Hinton agar pH 7.2, 32° C., 18 hr, 10^6 cells/ml
Protocol: as §1, §2, §3, §4

[13] = system: P. aeruginosa IPM-8; settings: Pseudomonas aeruginosa, IPM8, Mueller-Hinton agar pH 7.2, 32° C., 18 hr, 10^6 cells/ml
Protocol: as §1, §2, §3, §4

[14] = system: P. aeruginosa IPM-9; settings: Pseudomonas aeruginosa, IPM9, Mueller-Hinton agar pH 7.2, 32° C., 18 hr, 10^6 cells/ml
Protocol: as §1, §2, §3, §4

[15] = system: P. aeruginosa KKA 19; settings: Pseudomonas aeruginosa, KKA19, Mueller-Hinton agar pH 7.2, 32° C., 18 hr, 10^6 cells/ml
Protocol: as §1, §2, §3, §4

[16] = system: P. cepacia A21213; settings: Burkholderia cepacia, Mueller-Hinton agar pH 7.2, 32° C., 18 hr, 10^6 cells/ml
Protocol: as §1, §2, §3, §4

[17] = system: P. cepacia No. 651; settings: Burkholderia cepacia, Mueller-Hinton agar pH 7.2, 32° C., 18 hr, 10^6 cells/ml
Protocol: as §1, §2, §3, §4

[18] = system: P. mirabilis IFO-2849; settings: Proteus mirabilis, IFO2849, Mueller-Hinton agar pH 7.2, 32° C., 18 hr, 10^6 cells/ml
Protocol: as §1, §2, §3, §4

[19] = system: P. rettgeri IPM-14; settings: Providencia rettgeri, IPM14, Mueller-Hinton agar pH 7.2, 32° C., 18 hr, 10^6 cells/ml
Protocol: as §1, §2, §3, §4

[20] = system: P. vulgaris IPM-13; settings: Proteus vulgaris, IPM13, Mueller-Hinton agar pH 7.2, 32° C., 18 hr, 10^6 cells/ml
Protocol: as §1, §2, §3, §4

[21] = system: S. aureus 209P; settings: Staphylococcus aureus; S. aureus 209P; Mueller-Hinton agar pH 7.2; 32° C., 18 hr; 10^6 cells/ml; read-out: MIC
Protocol: as §1, §2, §3, §4

[22] = system: S. aureus 4-1015 (MRSA); settings: Staphylococcus aureus, Mueller-Hinton agar pH 7.2, 32° C., 18 hr, 10^6 cells/ml
Protocol: as §1, §2, §3, §4

[23] = system: S. aureus IPM-24 (MRSA); settings: Staphylococcus aureus, Mueller-Hinton agar pH 7.2, 32° C., 18 hr, 10^6 cells/ml
Protocol: as §1, §2, §3, §4

[24] = system: S. epidermidis 11-1230; settings: Staphylococcus epidermidis, 111230, Mueller-Hinton agar pH 7.2, 32° C., 18 hr, 10^6 cells/ml
Protocol: as §1, §2, §3, §4

[25] = system: S. marcescens IPM-15; settings: Serratia marcescens, IPM15, Mueller-Hinton agar pH 7.2, 32° C., 18 hr, 10^6 cells/ml
Protocol: as §1, §2, §3, §4

[26] = system: S. marcescens IPM-16; settings: Serratia marcescens, IPM16, Mueller-Hinton agar pH 7.2, 32° C., 18 hr, 10^6 cells/ml
Protocol: as §1, §2, §3, §4

[27] = system: X. maltophilia GN 12873; settings: Stenotrophomonas maltophilia, GN12873, Mueller-Hinton agar pH 7.2, 32° C., 18 hr, 10^6 cells/ml
Protocol: as §1, §2, §3, §4

[28] = system: X. maltophilia No. 661; settings: Stenotrophomonas maltophilia, Mueller-Hinton agar pH 7.2, 32° C., 18 hr, 10^6 cells/ml
Protocol: as §1, §2, §3, §4

[29] = system: E. coli Juhl A15119; settings: Escherichia coli, JUHLA15119; E. coli Juhl A15119; Mueller-Hinton agar pH 7.2; 32° C., 18 hr; 10^6 cells/ml; read-out: MIC
Protocol: as §1
(§5) In vivo antibacterial activity was determined against three bacterial infections (S. aureus Smith, E. coli Juhl and P. aeruginosa A9843A) by intramuscular administration to mice just after the bacterial challenge. PD50 values are summarized in Table 3 in comparsion with the MIC values against the corresponding organisms.
as §2, §3, §4

[30] = system: P. aeruginosa A9843A; settings: Pseudomonas aeruginosa, A9843A, 18 h, pH 7.2
Protocol: as §1, §5, §2, §3, §4

[31] = system: S. aureus Smith; settings: Staphylococcus aureus
Protocol: as §1, §5, §2, §3, §4

C[n+]1cn(C/C=C/C2=C(C(=O)[O-])N3C(=O)C(NC(=O)/C(=N\OC(C)(C)C(=O)O)c4csc(N)n4)C3SC2)c2cc(O)c(O)cc21 (centres unmarked) [Ip, 7-[(Z)-2-(2-Aminothiazol-4-yl)-2-(1-methyl-1-carboxyethoxy-imino)acetamido]-3-[(E)-3-(5,6-dihydroxy-3-methylbenzimi-dazol-3-io-1-yl)-1-propen-1-yl]-3-cephem-4-carboxylate]
MIC [1]: 12.5 µg/mL (≈ 19 µM) | MIC [2]: 12.5 µg/mL (≈ 19 µM) | MIC [3]: 1.6 µg/mL (≈ 2.43 µM) | MIC [4]: 3.1 µg/mL (≈ 4.71 µM) | MIC [5]: 0.05 µg/mL (≈ 0.076 µM) | MIC [6]: > 100 µg/mL | MIC [7]: > 100 µg/mL | MIC [8]: 0.013 µg/mL (≈ 0.0198 µM) | MIC [9]: 3.1 µg/mL (≈ 4.71 µM) | MIC [10]: 0.1 µg/mL (≈ 0.152 µM) | MIC [11]: 1.6 µg/mL (≈ 2.43 µM) | MIC [12]: 0.2 µg/mL (≈ 0.304 µM) | MIC [13]: 0.1 µg/mL (≈ 0.152 µM) | MIC [14]: 12.5 µg/mL (≈ 19 µM) | MIC [15]: 0.2 µg/mL (≈ 0.304 µM) | MIC [16]: 1.6 µg/mL (≈ 2.43 µM) | MIC [17]: 3.1 µg/mL (≈ 4.71 µM) | MIC [18]: 0.05 µg/mL (≈ 0.076 µM) | MIC [19]: 0.2 µg/mL (≈ 0.304 µM) | MIC [20]: 12.5 µg/mL (≈ 19 µM) | MIC [21]: 25 µg/mL (≈ 38 µM) | MIC [22]: > 100 µg/mL | MIC [23]: > 100 µg/mL | MIC [24]: 25 µg/mL (≈ 38 µM) | MIC [25]: > 100 µg/mL | MIC [26]: 3.1 µg/mL (≈ 4.71 µM) | MIC [27]: 1.6 µg/mL (≈ 2.43 µM) | MIC [28]: 0.8 µg/mL (≈ 1.22 µM) | MIC [29]: 0.2 µg/mL (≈ 0.304 µM) | MIC [30]: 0.1 µg/mL (≈ 0.152 µM) | MIC ([31]; 18 h, pH 7.2): 100 µg/mL (≈ 152 µM)

CO/N=C(\C(=O)NC1C(=O)N2C(C(=O)O)=C(/C=C/Cn3cnc4cc(O)c(O)cc43)CS[C@H]12)c1csc(N)n1 (some centres unmarked) [Iu, 7-[(Z)-2-(2-aminothiazol-4-yl)-2-methoxyiminoacetamido]-3-[(E)-3-(5,6-dihydroxybenzimidazol-1-yl)-1-propen-1-yl]-3-cephem-4-carboxylic acid]
MIC [1]: 3.1 µg/mL (≈ 5.42 µM) | MIC [2]: 100 µg/mL (≈ 175 µM) | MIC [3]: 1.6 µg/mL (≈ 2.8 µM) | MIC [4]: > 100 µg/mL | MIC [5]: 0.8 µg/mL (≈ 1.4 µM) | MIC [6]: 100 µg/mL (≈ 175 µM) | MIC [7]: > 100 µg/mL | MIC [8]: 0.05 µg/mL (≈ 0.0875 µM) | MIC [9]: 0.8 µg/mL (≈ 1.4 µM) | MIC [10]: 0.4 µg/mL (≈ 0.7 µM) | MIC [11]: 25 µg/mL (≈ 43.7 µM) | MIC [12]: 6.3 µg/mL (≈ 11 µM) | MIC [13]: 25 µg/mL (≈ 43.7 µM) | MIC [14]: 100 µg/mL (≈ 175 µM) | MIC [15]: 100 µg/mL (≈ 175 µM) | MIC [16]: > 100 µg/mL | MIC [17]: > 100 µg/mL | MIC [18]: 0.1 µg/mL (≈ 0.175 µM) | MIC [19]: 0.8 µg/mL (≈ 1.4 µM) | MIC [20]: > 100 µg/mL | MIC [21]: 6.3 µg/mL (≈ 11 µM) | MIC [22]: 50 µg/mL (≈ 87.5 µM) | MIC [23]: > 100 µg/mL | MIC [24]: 50 µg/mL (≈ 87.5 µM) | MIC [25]: > 100 µg/mL | MIC [26]: > 100 µg/mL | MIC [27]: > 100 µg/mL | MIC [28]: > 100 µg/mL | MIC [29]: 0.2 µg/mL (≈ 0.35 µM) | MIC [30]: 6.3 µg/mL (≈ 11 µM) | MIC ([31]; S. aureus Smith, Mueller-Hinton agar pH 7.2, 32° C., 18 hr, 10^6 cells/ml, read-out: MIC): 6.3 µg/mL (≈ 11 µM)
